Molecules are shown by their SMILES.

Data on 38 compounds can be found in patent US10076519B2 (CYTOKINETICS, INC., priority 2010, dated 2018).

For one experiment, the system named is rabbit skeletal myofibrils (fast skeletal myofibrils). Put plainly: Activation of fast skeletal myofibrils (PUMA assay, PK/LDH-coupled ATPase at pCa25). It is filed as biochemical. Particulars: AC1.4 determined according to the procedure of Example 39; reported as class symbols. The essentials:
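ATPase activity of Triton-washed rabbit skeletal myofibrils, roughly 90% fast fibres, tracked by NADH loss at 340 nm through a PK/LDH-coupled ADP-regenerating system. Calcium set to 25% of maximal activity (pCa25), in PIPES 12 mM pH 6.8 with 2 mM MgCl2 and 1 mM DTT; AC1.4 reported.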
On to `CC(C)(CNc1ccc(-c2nnn[nH]2)nn1)c1ccc(F)cc1` [(6-(1H-1,2,3,4-tetraazol-5-yl)pyridazin-3-yl)[2-(4-fluorophenyl)-2-methylpropyl]amine], for which the “Mean AC1.4” value is given as “D (D=>20 uM)”.
In the case of `CC(C)(CNc1ccc(-c2cccc3[nH]ncc23)nn1)c1ccc(F)cc1` [(6-(1H-indazol-4-yl)pyridazin-3-yl)[2-(4-fluorophenyl)-2-methylpropyl]amine], the “Mean AC1.4” value is “A (A=<1 uM)”.
Turning to `CC(C)(CNc1ccc(-c2ccc3[nH]ncc3c2)nn1)c1ncccc1F` [(6-(1H-indazol-5-yl)pyridazin-3-yl)[2-(3-fluoro(2-pyridyl))-2-methylpropyl]amine], the “Mean AC1.4” value is reported as “B (B=1-10 uM)”.
In the case of `CC(C)(CNc1ccc(-c2ccc3[nH]ncc3c2)nn1)c1ccc(F)cc1` [(6-(1H-indazol-5-yl)pyridazin-3-yl)[2-(4-fluorophenyl)-2-methylpropyl]amine], the “Mean AC1.4” value is reported as “A (A=<1 uM)”.
Still for that read-out and setting: then `c1ccc(C2(CNc3ccc(-c4ccc5[nH]ncc5c4)nn3)CCC2)nc1` [(6-(1H-indazol-5-yl)pyridazin-3-yl)[(2-pyridylcyclobutyl)methyl]amine], with “A (A=<1 uM)”.
Take `c1cnc(C2(CNc3ccc(-c4ccc5[nH]ncc5c4)nn3)CCC2)cn1` [(6-(1H-indazol-5-yl)pyridazin-3-yl)[(pyrazin-2-ylcyclobutyl)methyl]amine]: the “Mean AC1.4” value is listed as “C (C=10-20 uM)”.
Same read-out and setting: next, `CS(=O)(=O)N(CC1(c2ncccc2F)CNC1)c1ccc(-c2ccc3[nH]ncc3c2)nn1` [(6-(1H-indazol-5-yl)pyridazin-3-yl){[3-(3-fluoro(2-pyridyl))azetidin-3-yl]methyl}(methylsulfonyl)amine]: “D (D=>20 uM)”; `Fc1cccnc1C1(CNc2ccc(-c3ccc4[nH]ncc4c3)nn2)CNC1` [(6-(1H-indazol-5-yl)pyridazin-3-yl){[3-(3-fluoro(2-pyridyl))azetidin-3-yl]methyl}amine]: “D (D=>20 uM)”; `Fc1cccnc1C1(CNc2ccc(-c3ccc4[nH]ncc4c3)nn2)CCC1` [(6-(1H-indazol-5-yl)pyridazin-3-yl){[(3-fluoro(2-pyridyl))cyclobutyl]methyl}amine]: “A (A=<1 uM)”.
Same read-out and setting: next, `COc1cccnc1C1(CNc2ccc(-c3ccc4[nH]ncc4c3)nn2)CCC1` [(6-(1H-indazol-5-yl)pyridazin-3-yl){[(3-methoxy(2-pyridyl))cyclobutyl]methyl}amine]: “B (B=1-10 uM)”; `Fc1ccc(C2(CNc3ccc(-c4ccc5[nH]ncc5c4)nn3)CCC2)cc1` [(6-(1H-indazol-5-yl)pyridazin-3-yl){[(4-fluorophenyl)cyclo-butyl]methyl}amine]: “A (A=<1 uM)”.
Take `COc1ccnc(C2(CNc3ccc(-c4ccc5[nH]ncc5c4)nn3)CCC2)c1` [(6-(1H-indazol-5-yl)pyridazin-3-yl){[(4-methoxy(2-pyridyl))cyclobutyl]methyl}amine]: the “Mean AC1.4” value was “A (A=<1 uM)”.
Same read-out and setting: next, `COc1ccc(C2(CNc3ccc(-c4ccc5[nH]ncc5c4)nn3)CCC2)nc1` [(6-(1H-indazol-5-yl)pyridazin-3-yl){[(5-methoxy(2-pyridyl))cyclobutyl]methyl}amine]: “B (B=1-10 uM)”.
Turning to `COc1cccc(C2(CNc3ccc(-c4ccc5[nH]ncc5c4)nn3)CCC2)n1` [(6-(1H-indazol-5-yl)pyridazin-3-yl){[(6-methoxy(2-pyridyl))cyclobutyl]methyl}amine], the “Mean AC1.4” value is reported as “A (A=<1 uM)”.
`CC(C)(CNc1ccc(-c2ccc3cn[nH]c3c2)nn1)c1ccc(F)cc1` [(6-(1H-indazol-6-yl)pyridazin-3-yl)[2-(4-fluorophenyl)-2-methylpropyl]amine]: the “Mean AC1.4” value is reported as “A (A=<1 uM)”.
On the same count and under the same terms, next, `c1ccc(C2(CNc3ccc(-c4ccc5cn[nH]c5c4)nn3)CCC2)nc1` [(6-(1H-indazol-6-yl)pyridazin-3-yl)[(2-pyridylcyclobutyl)methyl]amine]: “A (A=<1 uM)”; `c1cnc(C2(CNc3ccc(-c4ccc5cn[nH]c5c4)nn3)CCC2)cn1` [(6-(1H-indazol-6-yl)pyridazin-3-yl)[(pyrazin-2-ylcyclobutyl)methyl]amine]: “C (C=10-20 uM)”; `Fc1cccnc1C1(CNc2ccc(-c3ccc4cn[nH]c4c3)nn2)CCC1` [(6-(1H-indazol-6-yl)pyridazin-3-yl){[(3-fluoro(2-pyridyl))cyclobutyl]methyl}amine]: “A (A=<1 uM)”.
The same measure, in the same setting: next, `COc1cccnc1C1(CNc2ccc(-c3ccc4cn[nH]c4c3)nn2)CCC1` [(6-(1H-indazol-6-yl)pyridazin-3-yl){[(3-methoxy(2-pyridyl))cyclobutyl]methyl}amine]: “B (B=1-10 uM)”; `Fc1ccc(C2(CNc3ccc(-c4ccc5cn[nH]c5c4)nn3)CCC2)cc1` [(6-(1H-indazol-6-yl)pyridazin-3-yl){[(4-fluorophenyl)cyclo-butyl]methyl}amine]: “A (A=<1 uM)”.
With `COc1ccnc(C2(CNc3ccc(-c4ccc5cn[nH]c5c4)nn3)CCC2)c1` [(6-(1H-indazol-6-yl)pyridazin-3-yl){[(4-methoxy(2-pyridyl))cyclobutyl]methyl}amine], the “Mean AC1.4” value is listed as “A (A=<1 uM)”.
The same measure, in the same setting: then `COc1ccc(C2(CNc3ccc(-c4ccc5cn[nH]c5c4)nn3)CCC2)nc1` [(6-(1H-indazol-6-yl)pyridazin-3-yl){[(5-methoxy(2-pyridyl))cyclobutyl]methyl}amine], with “B (B=1-10 uM)”.

Staying with this experiment, now noted: median AC1.4 class, procedure of Example 39.
As to `CC(C)(Nc1ccc(-c2ccccc2)nn1)c1ccccc1` [(1-methyl-1-phenylethyl)(6-phenylpyridazin-3-yl)amine], the “Mean AC1.4” value is on record as “B (B=1-10 uM)”.
Same read-out and setting: then `N#C/N=C(/N)c1cnc(-c2ccc(NCC3(c4ncccc4F)CCC3)nn2)s1` [(2E)-3-amino-3-{2-[6-({[(3-fluoro(2-pyridyl))cyclobutyl]methyl}ami-no)pyridazin-3-yl](1,3-thiazol-5-yl)}-2-azaprop-2-enenitrile], with “B (B=1-10 uM)”; and `N[C@H](CO)C(=O)NCc1cnc(-c2ccc(NCC3(c4ncccc4F)CCC3)nn2)s1` [(2R)-2-amino-N-({2-[6-({[(3-fluoro(2-pyridyl))cyclobutyl]methyl}ami-no)pyridazin-3-yl](1,3-thiazol-5-yl)}methyl)-3-hydroxypropanamide], with “A (A=<1 uM)”; and `C[C@@H](N)C(=O)NCc1cnc(-c2ccc(NCC3(c4ncccc4F)CCC3)nn2)s1` [(2R)-2-amino-N-({2-[6-({[(3-fluoro(2-pyridyl))cyclobutyl]methyl}ami-no)pyridazin-3-yl](1,3-thiazol-5-yl)}methyl)propanamide], with “A (A=<1 uM)”.
Still for that read-out and setting: then `N[C@@H](CO)C(=O)NCc1cnc(-c2ccc(NCC3(c4ncccc4F)CCC3)nn2)s1` [(2S)-2-amino-N-({2-[6-({[(3-fluoro(2-pyridyl))cyclobutyl]methyl}ami-no)pyridazin-3-yl](1,3-thiazol-5-yl)}methyl)-3-hydroxypropanamide], with “A (A=<1 uM)”.
The same measure, in the same setting: next, `C[C@H](N)C(=O)NCc1cnc(-c2ccc(NCC3(c4ncccc4F)CCC3)nn2)s1` [(2S)-2-amino-N-({2-[6-({[(3-fluoro(2-pyridyl))cyclobutyl]methyl}ami-no)pyridazin-3-yl](1,3-thiazol-5-yl)}methyl)propanamide]: “A (A=<1 uM)”; `CC(C)(Nc1ccc(-c2ccc3[nH]ncc3c2)nn1)c1ccccc1` [(6-(1H-indazol-5-yl)pyridazin-3-yl)(1-methyl-1-phenylethyl)amine]: “B (B=1-10 uM)”; `Fc1cccnc1C1(Nc2ccc(-c3ccc4[nH]ncc4c3)nn2)CCC1` [(6-(1H-indazol-5-yl)pyridazin-3-yl)[(3-fluoro(2-pyridyl))cyclobutyl]amine]: “B (B=1-10 uM)”.
With `Fc1ccc(C2(Nc3ccc(-c4ccc5[nH]ncc5c4)nn3)CCC2)cc1` [(6-(1H-indazol-5-yl)pyridazin-3-yl)[(4-fluorophenyl)cyclobutyl]amine], the “Mean AC1.4” value is reported as “A (A=<1 uM)”.
Same read-out and setting: next, `Fc1cccnc1C1(CNc2ccc(-c3ccc4[nH]ncc4c3)nn2)CC(F)(F)C1` [(6-(1H-indazol-5-yl)pyridazin-3-yl){[3,3-difluoro-1-(3-fluoro(2-pyridyl))cyclobutyl]methyl}amine]: “B (B=1-10 uM)”; `FC(F)(CNc1ccc(-c2ccc3cn[nH]c3c2)nn1)c1ccccn1` [(6-(1H-indazol-6-yl)pyridazin-3-yl)(2,2-difluoro-2-(2-pyridyl)ethyl)amine]: “D (D=>20 uM)”; `Fc1cccnc1C1(Nc2ccc(-c3ccc4cn[nH]c4c3)nn2)CCC1` [(6-(1H-indazol-6-yl)pyridazin-3-yl)[(3-fluoro(2-pyridyl))cyclobutyl]amine]: “B (B=1-10 uM)”.
With `Fc1cccnc1C1(CNc2ccc(-c3ccc4cn[nH]c4c3)nn2)CC(F)(F)C1` [(6-(1H-indazol-6-yl)pyridazin-3-yl){[3,3-difluoro-1-(3-fluoro(2-pyridyl))cyclobutyl]methyl}amine], the “Mean AC1.4” value was “B (B=1-10 uM)”.

Still in this experiment, the particulars now being: median AC1.4 reported as class; procedure of Example 39.
Consider `C[C@@H](O)C(=O)NCc1cnc(-c2ccc(NCC3(c4ncccc4F)CCC3)nn2)s1` [(2R)-N-({2-[6-({[(3-fluoro(2-pyridyl))cyclobutyl]methyl}ami-no)pyridazin-3-yl](1,3-thiazol-5-yl)}methyl)-2-hydroxypropanamide], for which the “Mean AC1.4” value is on record as “A (A=<1 uM)”.
Still for that read-out and setting: then `C[C@H](O)C(=O)NCc1cnc(-c2ccc(NCC3(c4ncccc4F)CCC3)nn2)s1` [(2S)-N-({2-[6-({[(3-fluoro(2-pyridyl))cyclobutyl]methyl}ami-no)pyridazin-3-yl](1,3-thiazol-5-yl)}methyl)-2-hydroxypropanamide], with “A (A=<1 uM)”; and `NC1(C(=O)NCc2cnc(-c3ccc(NCC4(c5ncccc5F)CCC4)nn3)s2)COC1` [(3-aminooxetan-3-yl)-N-({2-[6-({[(3-fluoro(2-pyridyl))cyclobutyl]methyl}ami-no)pyridazin-3-yl](1,3-thiazol-5-yl)}methyl)carboxamide], with “A (A=<1 uM)”.
